Measured values as given in patent US20220267394A1, “COMPOUNDS FOR INDUCING TISSUE FORMATION AND USES THEREOF” (HISTIDE AG, priority 2015, published 2022).
Where no end group is shown, it is not given here.

Test system: hMSCs
Assay: Loss of stemness: STRO-1 expression by immunostaining
Format: cell-based, human
Protocol: The cells were first fixed for 20 min with 4% paraformaldehyde/PBS at 4° C. After fixation, the cells were permeabilized in PBS containing 1% Triton X-100 for 15 min. Runx2, Osterix, Stro-1, Vinculin, Phalloidin, Osteopontin, Sox2, Sox9 antibodies were visualized by treating the cells with 1% (v/v) specific monoclonal antibodies for 1 hour at 37° C. Then the samples were incubated with Alexa Fluor® 568 or 647 (F(ab′)2 fragment of IgG(H+L)) during 30 min at room temperature. The cell nuclei were counterstained in 20 ng/mL DAPI for 10 min at room temperature.
For this type of quantification the freeware image analysis ImageJ® software was used. The raw image was first converted to an 8-bit file, and then the unsharp mask feature was used (settings 1:0.2) to remove the image background (rolling ball radius 10). After smoothing, the resulting image, which appears similar to the original photomicrograph but with minimal background, was then converted to a binary image by setting a threshold. Threshold values were determined empirically by selecting a setting, which gave the most accurate binary image for a subset of randomly selected photomicrographs. The cell area was determined by manual delineation on raw fluorescent images. Total contact area and mean contact area per cell were calculated by “analyse particules” in ImageJ®. A minimum of 30 cells per condition were analyzed. Stro-1, CD-34+, and CD-105 expressions were determined using this procedure.
hMSCs were cultured on conventional cell culture plastic plates with or without the presence in the cell culture media of different GFR-binding compounds as described herein (SEQ ID NO: 50 to 88) in solution. […] This was probed by Stro-1 immunostaining after cell fixation as described in the Methods section. The quantification of Stro-1 positive contact numbers and areas was performed as described in the Methods section. A minimum of 30 cells per condition were analyzed. Stro-1 positive marrow cells are multipotential and capable of differentiating into multiple mesenchymal lineages including stromal cells with a phenotype resembling vascular smooth muscle cells that can support hematopoiesis, adipocytes, osteoblasts, and chondrocytes.
Using the method detailed in the description, the RMSD of 57 previously reported peptide sequences have been determined (Table 6) and correlated with the expression of STRO-1 in solution. […] One should note that it is commonly admitted that the expression of STRO-1 in a cell is indicative of a cell that is in a substantially non-differentiated state and the decrease of its expression of at least about 20% is indicative of a cell that has started a process of differentiation but which may not result in the differentiation of the cell. A decrease of more than 50% would be indicative of the presence of a significant shift towards a differentiated state. A decrease of more than 70% would be indicative of the presence of a very important shift towards a differentiated state. A sustained decrease (e.g. for at least 96 h) of more than 50% or 70% would be indicative of the presence of an even more important shift towards a differentiated state.
Likewise, using the method detailed in the description, the RMSD of 75 GFR-binding peptide sequence representatives of the invention have been determined (Table 8) and correlated with the expression of STRO-1. SEQ ID NO: 1 to 49 were tested in combination with a bioactive carrier as defined above in the Examples Section (i.e. titanium, ceramics, collagen, etc. . . . ), whereas SEQ ID NO: 2242 to 2267 were tested in solution.

[1] = Table 8, SEQ ID NO: 2242 to 2267 tested in solution
[2] = Table 6, previously reported peptides in solution, 400 ng/mL
[3] = Table 8, SEQ ID NO: 1 to 49 tested in combination with a bioactive carrier (titanium, ceramics, collagen, etc.)

Row | Substance | STRO-1 expression (%) [2] [%] | STRO-1 expression (%) [3] [%] | other results
1 | 2253 (VPQQQEPLTTLYYDEYDKVVEQLSNQQVKS; GFR-binding peptide) [compound 2253] |  |  | STRO-1 expression (%) [1]: 18%
2 | 2246 (APTGGSATSMLYYDKGVVTYLRKHRGGVVK; GFR-binding peptide) [compound 2246] |  |  | STRO-1 expression (%) [1]: 23%
3 | 2195 (MALPQPRGSSLSKAPVVVAPCMALKRVNIRSIVFEVLKTMNQNCIHETPN; Peptide reported in US20130333061, SEQ ID NO:158498) [compound 2195] | 82 |  | 
4 | 2176 (MQCRELVTQVTEEPISQTEDGEEQESTTTPRLKGQKKE; Peptide reported in US20070083334, SEQ ID NO:958173) [compound 2176] | 85 |  | 
5 | 5 (CASASPXXVSQDLNAISVLYFIGKTPKILKKYRMIVKSXKXS; GFR-binding peptide; MOD_RES (7), (8), (39), (41): Xaa is C or S) [compound 5] |  | 26 | 
6 | 19 (CPKPSSAPTQLSAISTLYLDDSSNVILKNYQMIVVRA; GFR-binding peptide) [compound 19] |  | 20 | 
7 | 2206 (CIPKPSSAPTELSAISMLYL; Peptide reported in WO2009151288, SEQ ID NO:2) [compound 2206] | 83 |  | 
8 | 15 (CASSAVSQELSAISMLYLGGGLKNYQDM; GFR-binding peptide) [compound 15] |  | 21 | 
9 | 39 (CVPTEESNITMQIMRIKPHQGQHIGEMSFL; GFR-binding peptide) [compound 39] |  | 16 | 
10 | 2256 (VPTDDSATSTLYYDKGVVTYLRKHRDDEHS; GFR-binding peptide) [compound 2256] |  |  | STRO-1 expression (%) [1]: 27%
11 | 20 (CKVGKASSVPTKLNAISTLYLDDSSNVILKNYQ; not fully specified; ends and bridges not checked) [compound 20] |  | 18 | 
12 | 2180 (VPTKLSPISILYLDKGVVTYKFKYEGMSVAECGCR; Peptide reported in US8969040, SEQ ID NO:90) [compound 2180] | 80 |  | 
13 | 2249 (TPTSSSPINTLYFDDMGVPTYGKIPSSVVD; GFR-binding peptide) [compound 2249] |  |  | STRO-1 expression (%) [1]: 25%
14 | 2247 (VPTSSSPISTLYIDKGVVTYLKYHYSSVAE; GFR-binding peptide) [compound 2247] |  |  | STRO-1 expression (%) [1]: 20%
15 | 8 (CAPTQLSPISVLYKDDSSNVILKYHYTLEDH; GFR-binding peptide) [compound 8] |  | 19 | 
16 | 2162 (ENVNLKKYRNMIVKSCGCH; Peptide reported in US20040039543, SEQ ID NO:107) [compound 2162] | 97 |  | 
17 | 2212 (CCAPTQLSAISVLYFDDSSNVILKKYRNMVVRACGCR; Comparative sequence) [compound 2212] | 82 |  | 
18 | 24 (GTPGPPSSAPTQLSATSVLYYDDSSNVILRKHRMIVKS; GFR-binding peptide) [compound 24] |  | 21 | 
19 | 2184 (SATSRLALSDVPAELAA; Peptide reported in WO2013040142, SEQ ID NO:729730) [compound 2184] | 98 |  | 
20 | 2196 (MAAQDEWRDAITLTMGRDLKKVPQHLNAISVIDPVT; Peptide reported in US20120246748, SEQ ID NO:111359) [compound 2196] | 83 |  | 
21 | 2187 (SVPAVCSATSATGPYSTATNTVWPSIVATGGTT; Peptide reported in EP1687419, SEQ ID NO:43) [compound 2187] | 92 |  | 
22 | 16 (CKASSVPTELSPISTLYKDENEKVVLKYHYDMVVEGSGSR; not fully specified; ends and bridges not checked) [compound 16] |  | 18 | 

Row | Substance | STRO-1 expression (%) [2] [%] | STRO-1 expression (%) [3] [%] | other results
23 | 2248 (VPTAAEPISMLYLDEYDKVVKFKYEAAAVS; GFR-binding peptide) [compound 2248] |  |  | STRO-1 expression (%) [1]: 26%
24 | 2244 (VPTVVSAISTLYLRIKPHQGQHLKNYQVVVVE; GFR-binding peptide) [compound 2244] |  |  | STRO-1 expression (%) [1]: 21%
25 | 2182 (VPTELSPISLLYLDEFEKVTLKNYQDMVVDG; Peptide reported in US20120244575, SEQ ID NO:4324) [compound 2182] | 87 |  | 
26 | 2263 (ASASPSSAPVDLKPLSMLYVIGKTPKIDHHKDMIVEESKSS; GFR-binding peptide) [compound 2263] |  |  | STRO-1 expression (%) [1]: 16%
27 | 2186 (SVPAVCSATSATGPYSSVTVTSWPSIVATGGTT; Peptide reported in EP1687419, SEQ ID NO:42) [compound 2186] | 92 |  | 
28 | 36 (CKIPKASSVPTELEPLPIVYYVGRKPKVEQLSNMIVRS; not fully specified; ends and bridges not checked) [compound 36] |  | 19 | 
29 | 34 (GTPGPRNVQCRPTQVQLSAISTLYLEIVRKKPLKNYQTLEDH; GFR-binding peptide) [compound 34] |  | 18 | 
30 | 2200 (FDSRVLKSAISFKENIIF; Peptide reported in WO2013040142, SEQ ID NO:2935795) [compound 2200] | 89 |  | 
31 | 33 (WWFWGASSAVSQELSAISMLYLGGGLKNYQDMQHN; GFR-binding peptide) [compound 33] |  | 28 | 
32 | 2255 (SRVAARSVKMAKVGGGGGGGKEVQVAAEEH; GFR-binding peptide) [compound 2255] |  |  | STRO-1 expression (%) [1]: 31%
33 | 2190 (VHLLKPHAVPKACCAPTKLSATSVLYYDSSNNVILRKHRNMVVRACGCH; Peptide reported in US5688678, SEQ ID NO:8) [compound 2190] | 88 |  | 
34 | 2207 (CKIPKPSSAPTELSAISMLYL; Peptide reported in WO2009151288, SEQ ID NO:1) [compound 2207] | 78 |  | 
35 | 21 (CGGGSSVPTELSAISTLYLDDYDKVILKKYRNM; GFR-binding peptide) [compound 21] |  | 14 | 
36 | 2167 (LNEVLRFCGIQVPEGDEPLTY; Peptide reported in WO2013040142, SEQ ID NO:89702) [compound 2167] | 99 |  | 
37 | 2171 (SHQSAGDSIKSPARHSAPTHQEPLPD; Peptide reported in WO2013040142, SEQ ID NO:3137100) [compound 2171] | 91 |  | 
38 | 6 (CAVPKAXXAPTKLSATSVLYYDSSNNVVLRKHRNMVVK; GFR-binding peptide; MOD_RES (7), (8): Xaa is C or S) [compound 6] |  | 26 | 
39 | 2208 (AETLHTLGLSAPVIESAISDAI; Peptide reported in WO2013040142, SEQ ID NO:629725) [compound 2208] | 93 |  | 
40 | 35 (GTPGPRNVQCRPTQVQLSAISTLYLAAALKNYQTLE; GFR-binding peptide) [compound 35] |  | 28 | 
41 | 2166 (NEVLRFCGIQVPEGDEPLT; Peptide reported in WO2013040142, SEQ ID NO:101213) [compound 2166] | 98 |  | 
42 | 12 (CKVPKASSVPTELSAISTLYLAAAALKNYQEM; GFR-binding peptide) [compound 12] |  | 28 | 
43 | 43 (CAAPASSSVPARLSPISILYIDAANNVVYKQYEDMVVEASG; not fully specified; ends and bridges not checked) [compound 43] |  | 27 | 
